Read-outs that look alike come from different tables or passages of the source. Starred links: 1 amine or outer side, 2 acyl side, 3 side chain; linkers in the order of their positions; H or OH if unused. Non-standard residues stand in square brackets, D forms with d. Groups on a side chain read outwards from the residue. No end group written: not given here. *: point of attachment. C20 diacid = O=C(O)CCCCCCCCCCCCCCCCCCC(=O)*; C18 diacid = O=C(O)CCCCCCCCCCCCCCCCC(=O)*; γGlu = O=C(O)[C@H](CCC(=O)[*:2])N[*:1]; εLys = N[C@@H](CCCCN[*:1])C(=O)[*:2]; AEEA = NCCOCCOCC(=O)O; Aib = CC(C)(N)C(=O)O; Ahx = NCCCCCC(=O)O
Columns and labels:
Assay type in all cases: cell-based
Conditions in all cases: CreLuc reporter gene assay
[1] = molecular target: T1, hGIPR (Homo sapiens, UniProt P48546); test: hGIPR CreLuc reporter gene assay in 0.5% and 100% plasma
T1 construct: expressed in transfected cells; host or cells: CHO cells carrying a CRE-luciferase reporter gene
T1 sequence (P48546 22-466): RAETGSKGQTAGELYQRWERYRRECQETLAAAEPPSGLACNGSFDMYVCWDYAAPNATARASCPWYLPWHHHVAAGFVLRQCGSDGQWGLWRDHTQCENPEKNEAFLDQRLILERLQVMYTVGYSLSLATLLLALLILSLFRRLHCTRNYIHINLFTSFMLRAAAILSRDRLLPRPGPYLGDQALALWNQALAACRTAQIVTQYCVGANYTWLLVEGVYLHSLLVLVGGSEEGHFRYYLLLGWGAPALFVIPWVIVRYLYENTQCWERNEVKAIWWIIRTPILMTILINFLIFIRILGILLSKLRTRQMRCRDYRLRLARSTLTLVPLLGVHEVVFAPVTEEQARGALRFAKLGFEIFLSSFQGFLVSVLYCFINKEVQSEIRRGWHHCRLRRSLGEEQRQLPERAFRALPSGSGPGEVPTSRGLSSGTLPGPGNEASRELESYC
In short: (§1)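 HEK cells (GLP-1R, NPY2R) or CHO cells (GIPR) carrying a CRE-luciferase reporter, incubated 4 h at 37 °C with peptides in HBSS/20 mM HEPES pH 7.4 plus 0.5% human plasma, or in 100% plasma. Luminescence read; EC50 from 8-point variable-slope sigmoid fits.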

[2] = molecular target: T2, hGLP1R (Homo sapiens, UniProt P43220); test: hGLP1R CreLuc reporter gene assay in 0.5% and 100% plasma
T2 construct: expressed in transfected cells; host or cells: HEK-293 cells carrying a CRE-luciferase reporter gene
T2 sequence (P43220 24-463): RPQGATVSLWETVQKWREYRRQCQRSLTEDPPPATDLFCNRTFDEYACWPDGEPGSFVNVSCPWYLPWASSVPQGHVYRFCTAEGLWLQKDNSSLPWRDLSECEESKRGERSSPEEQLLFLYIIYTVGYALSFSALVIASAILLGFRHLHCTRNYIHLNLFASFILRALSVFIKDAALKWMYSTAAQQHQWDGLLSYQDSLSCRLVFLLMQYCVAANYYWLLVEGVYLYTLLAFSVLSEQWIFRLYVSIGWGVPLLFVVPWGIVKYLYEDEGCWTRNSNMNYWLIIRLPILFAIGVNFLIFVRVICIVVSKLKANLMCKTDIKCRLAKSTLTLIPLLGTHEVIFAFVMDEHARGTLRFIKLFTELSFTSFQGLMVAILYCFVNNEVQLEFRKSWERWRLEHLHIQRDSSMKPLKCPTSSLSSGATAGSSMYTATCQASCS
In short: as §1

[3] = molecular target: T3, hNPY2R (Homo sapiens, UniProt P49146); test: hNPY2R CreLuc reporter gene assay in 0.5% and 100% plasma
T3 construct: expressed in transfected cells; host or cells: HEK-293 cells carrying a CRE-luciferase reporter gene
T3 sequence (P49146 1-381): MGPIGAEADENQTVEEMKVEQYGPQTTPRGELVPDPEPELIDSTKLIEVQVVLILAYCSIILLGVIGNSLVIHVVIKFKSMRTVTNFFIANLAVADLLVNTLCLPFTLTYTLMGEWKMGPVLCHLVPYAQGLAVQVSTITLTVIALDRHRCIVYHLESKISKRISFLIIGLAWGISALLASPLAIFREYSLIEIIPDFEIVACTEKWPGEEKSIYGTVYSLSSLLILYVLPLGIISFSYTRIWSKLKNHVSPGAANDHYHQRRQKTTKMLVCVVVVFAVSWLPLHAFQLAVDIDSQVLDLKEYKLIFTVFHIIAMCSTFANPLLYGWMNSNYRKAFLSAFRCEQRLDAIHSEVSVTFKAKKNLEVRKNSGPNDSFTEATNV
In short: as §1

[4] = 0.5% human plasma, read-out: hGIPR 0.5% hP
[5] = 0.5% human plasma, read-out: hGLP1R 0.5% hP
[6] = 0.5% human plasma, read-out: hNPY2R 0.5% hP
[7] = 100% human plasma, read-out: hGIPR 100% hP
[8] = 100% human plasma, read-out: hGLP1R 100% hP
[9] = 100% human plasma, read-out: hNPY2R 100% hP

Substance	EC50 [1, 4] [nM]	EC50 [2, 5] [nM]	EC50 [3, 6] [nM]	EC50 [1, 7] [nM]	EC50 [2, 8] [nM]	EC50 [3, 9] [nM]
H-Y[Aib]EGTFTSDYSI[Aib]LEKQAQ[Aib]AFVQWLIK([εLys-γGlu-γGlu-γGlu-γGlu-γGlu-C20 diacid])GGPSEGASLRHYYNWLTRQRY-NH2 [Compound 242, Y-Aib-E-G-T-F-T-S-D-Y-S-I-Aib-L-E-K-Q-A-Q-Aib-A-F-V-Q-W-L-I-K(1,3)-GGPSEGASLRHYYNWLTRQRY-NH2.C20DA-gGlu-gGlu-gGlu-gGlu-gGlu-eLys(1,2)]	0.32	0.13		1.72		28.8
Y[Aib]EGTFTSDYSI[Aib]LEKQAQ[Aib]AFVEWLIK([εLys-γGlu-γGlu-γGlu-γGlu-γGlu-C20 diacid])GGPESPASLRHYYNWLTRQRY-NH2 [Compound 70, Y-Aib-E-G-T-F-T-S-D-Y-S-I-Aib-L-E-K-Q-A-Q-Aib-A-F-V-E-W-L-I-K(1,3)-GGPESPASLRHYYNWLTRQRY-NH2.C20DA-gGlu-gGlu-gGlu-gGlu-gGlu-eLys(1,2)]	0.28	0.3	16.2	2.62		
H-Y[Aib]EGTFTSDYSI[Aib]LEKQAQ[Aib]AFVEWLIK([Ahx-γGlu-γGlu-γGlu-γGlu-γGlu-C20 diacid])GGPSEGASLRHYYNWLTRQRY-NH2 [Compound 301, Y-Aib-E-G-T-F-T-S-D-Y-S-I-Aib-L-E-K-Q-A-Q-Aib-A-F-V-E-W-L-I-K(1,3)-GGPSEGASLRHYYNWLTRQRY-NH2.C20DA-gGlu-gGlu-gGlu-gGlu-gGlu-AHX(1,2)]	0.58	0.23		3.27		99.3
H-Y[Aib]EGTFTSDYSI[Aib]LEKQAQ[Aib]AFVEWLIK([εLys-γGlu-γGlu-γGlu-γGlu-γGlu-γGlu-C20 diacid])GGPSSGLSLRHYYNWLTRQRY-NH2 [Compound 107, Y-Aib-E-G-T-F-T-S-D-Y-S-I-Aib-L-E-K-Q-A-Q-Aib-A-F-V-E-W-L-I-K(1,3)-GGPSSGLSLRHYYNWLTRQRY-NH2.C20DA-gGlu-gGlu-gGlu-gGlu-gGlu-gGlu-eLys(1,2)]	0.27	0.13	16.7			58.5

Substances with a lower EC50 [1, 4], results first:

EC50 [1, 4] [nM]	EC50 [2, 5] [nM]	EC50 [3, 6] [nM]	EC50 [1, 7] [nM]	EC50 [2, 8] [nM]	EC50 [3, 9] [nM]	Substance
0.12	0.15	16.9				H-Y[Aib]EGTFTSDYSI[Aib]LEKQAQ[Aib]AFVQWLIK([AEEA-AEEA-Glu-Glu-Glu-C18 diacid])GGPEEGASLRHYYNWLTRQRY-NH2 [Compound 188, Y-Aib-E-G-T-F-T-S-D-Y-S-I-Aib-L-E-K-Q-A-Q-Aib-A-F-V-Q-W-L-I-K(1,3)-GGPEEGASLRHYYNWLTRQRY-NH2.C18DA-E-E-E-OEG-OEG(1,2)]
0.05	0.07		1.14	2.12	24.5	H-Y[Aib]EGTFTSDYSI[Aib]LEKQAQ[Aib]AFVEWLIK([εLys-γGlu-γGlu-γGlu-γGlu-γGlu-γGlu-C20 diacid])GGPSSGQS[Aib]RHYYNWLTRQRY-NH2 [Compound 44, Y-Aib-E-G-T-F-T-S-D-Y-S-I-Aib-L-E-K-Q-A-Q-Aib-A-F-V-E-W-L-I-K(1,3)-G-G-P-S-S-G-Q-S-Aib-R-H-Y-Y-N-W-L-T-R-Q-R-Y-NH2.C20DA-gGlu-gGlu-gGlu-gGlu-gGlu-gGlu-eLys(1,2)]
0.14	0.15	14.9	0.95		70.4	H-Y[Aib]EGTFTSDYSI[Aib]LEEQAQ[Aib]AFVEWLIK([εLys-γGlu-γGlu-γGlu-γGlu-C20 diacid])GGPSSGASLRHYYNWLTRQRY-NH2 [Compound 97, Y-Aib-E-G-T-F-T-S-D-Y-S-I-Aib-L-E-E-Q-A-Q-Aib-A-F-V-E-W-L-I-K(1,3)-GGPSSGASLRHYYNWLTRQRY-NH2.C20DA-gGlu-gGlu-gGlu-gGlu-eLys(1,2)]
0.22	0.07	17.8	0.63	1.69	30.9	H-Y[Aib]EGTFTSDYSI[Aib]LEKQAQ[Aib]AFVEWLIK([AEEA-AEEA-γGlu-γGlu-γGlu-γGlu-C18 diacid])GGPSSGASLRHYYNWLTRQRY-NH2 [Compound 254, Y-Aib-E-G-T-F-T-S-D-Y-S-I-Aib-L-E-K-Q-A-Q-Aib-A-F-V-E-W-L-I-K(1,3)-GGPSSGASLRHYYNWLTRQRY-NH2.C18DA-gGlu-gGlu-gGlu-gGlu-OEG-OEG(1,2)]

— US20240247080A1, “GLP1/GIP/NPY2 RECEPTOR TRIPLE AGONISTS” (Boehringer Ingelheim International GmbH, priority 2022, published 2024)
